In patent US7820670B2 (Alcon Research, Ltd., priority 2006, dated 2010):
Where a name gives a salt, the structure may show the parent alone.

Columns and labels:
[1] = system: lasered (hypertensive) eyes of conscious cynomolgus monkeys; experiment: Acute IOP response in lasered (hypertensive) eyes of conscious cynomolgus monkeys; assay type: in vivo; details: 30 ug, one 30 μL aliquot topical to right eye
Protocol: Intraocular pressure (IOP) can be determined with an Alcon Pneumatonometer after light corneal anesthesia with 0.1% proparacaine. Eyes are washed with saline after each measurement. After a baseline IOP measurement, test compound is instilled in one 30 μL aliquot to the right eyes only of nine cynomolgus monkeys. Vehicle is instilled in the right eyes of six additional animals. Subsequent IOP measurements are taken at 1, 3, and 6 hours.

ROCK 2 = target: T1, ROCK 2 (Homo sapiens, UniProt O75116); experiment: Rho kinase assay (IMAP ROCK-II kit, fluorescence polarization); assay type: biochemical; details: substrate 200 nM, ATP 10 μM, 60 min at 23° C.
T1 construct: purchased Molecular Devices, Sunnyvale, Calif
T1 sequence (O75116 whole entry, species assumed): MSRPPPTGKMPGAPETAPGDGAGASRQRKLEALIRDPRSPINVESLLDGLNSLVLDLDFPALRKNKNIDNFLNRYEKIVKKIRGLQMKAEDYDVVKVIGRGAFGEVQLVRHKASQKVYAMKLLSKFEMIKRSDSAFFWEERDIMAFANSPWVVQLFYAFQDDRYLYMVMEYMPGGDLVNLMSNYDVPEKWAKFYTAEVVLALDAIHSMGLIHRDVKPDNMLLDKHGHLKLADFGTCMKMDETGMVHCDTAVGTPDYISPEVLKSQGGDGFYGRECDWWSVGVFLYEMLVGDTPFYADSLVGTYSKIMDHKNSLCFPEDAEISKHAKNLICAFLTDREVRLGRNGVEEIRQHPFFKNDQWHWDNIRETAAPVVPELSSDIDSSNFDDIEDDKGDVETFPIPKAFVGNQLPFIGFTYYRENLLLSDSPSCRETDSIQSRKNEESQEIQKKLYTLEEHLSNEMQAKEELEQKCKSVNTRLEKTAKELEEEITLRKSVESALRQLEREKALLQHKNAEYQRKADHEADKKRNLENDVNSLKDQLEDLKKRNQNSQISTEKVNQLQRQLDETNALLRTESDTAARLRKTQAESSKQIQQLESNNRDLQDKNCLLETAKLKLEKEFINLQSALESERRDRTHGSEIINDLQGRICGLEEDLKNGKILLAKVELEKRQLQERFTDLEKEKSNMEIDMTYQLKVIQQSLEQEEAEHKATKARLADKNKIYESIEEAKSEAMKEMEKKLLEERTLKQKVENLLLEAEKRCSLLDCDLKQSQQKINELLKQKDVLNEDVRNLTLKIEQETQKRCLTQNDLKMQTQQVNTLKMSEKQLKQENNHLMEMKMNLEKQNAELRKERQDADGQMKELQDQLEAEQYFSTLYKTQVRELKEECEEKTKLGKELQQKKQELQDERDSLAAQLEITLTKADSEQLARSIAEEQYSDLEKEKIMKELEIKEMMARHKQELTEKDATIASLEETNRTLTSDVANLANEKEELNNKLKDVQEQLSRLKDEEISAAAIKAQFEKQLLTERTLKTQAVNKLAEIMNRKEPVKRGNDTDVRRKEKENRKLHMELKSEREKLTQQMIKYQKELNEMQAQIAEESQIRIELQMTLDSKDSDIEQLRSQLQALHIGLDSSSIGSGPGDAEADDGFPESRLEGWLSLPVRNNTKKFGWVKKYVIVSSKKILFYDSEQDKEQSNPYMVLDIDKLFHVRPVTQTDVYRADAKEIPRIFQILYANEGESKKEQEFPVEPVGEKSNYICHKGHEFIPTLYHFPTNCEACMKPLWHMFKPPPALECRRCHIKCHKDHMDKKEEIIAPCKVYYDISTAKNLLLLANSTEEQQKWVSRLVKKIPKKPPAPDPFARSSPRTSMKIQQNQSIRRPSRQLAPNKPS
Protocol: (§1) The rho kinase assays were performed using a Biomek 2000 Robotic Workstation (Beckman Instruments, Palo Alto, Calif.) in a 96-well plate format. The assay was performed utilizing the IMAP ROCK-I and ROCK-II kits (Molecular Devices, Sunnyvale, Calif.) as follows. […] The substrate, enzyme, and ATP dilutions were made with the reaction buffer provided by the vendor. Test compounds were diluted in 10:10 DMSO-ethanol (vol/vol). For the actual assay, the various components were added into black, clear bottom, 96-well plates (Costar, Corning, N.Y.) in a final volume of 20μl per well. After the enzyme reaction (60 min at 23° C.), 60 μl of the binding solution was added per well and incubated for an additional 30 minutes in the dark at 23° C. Fluorescence polarization of the reaction mixtures was then measured on the Analyst™ HT instrument (Molecular Devices, Sunnyvale, Calif.).

ROCK 1 = ROCK 1 (Homo sapiens, UniProt Q13464); experiment: Rho kinase assay (IMAP ROCK-I kit, fluorescence polarization)
Chain of ROCK 1 (Q13464 whole entry, species assumed): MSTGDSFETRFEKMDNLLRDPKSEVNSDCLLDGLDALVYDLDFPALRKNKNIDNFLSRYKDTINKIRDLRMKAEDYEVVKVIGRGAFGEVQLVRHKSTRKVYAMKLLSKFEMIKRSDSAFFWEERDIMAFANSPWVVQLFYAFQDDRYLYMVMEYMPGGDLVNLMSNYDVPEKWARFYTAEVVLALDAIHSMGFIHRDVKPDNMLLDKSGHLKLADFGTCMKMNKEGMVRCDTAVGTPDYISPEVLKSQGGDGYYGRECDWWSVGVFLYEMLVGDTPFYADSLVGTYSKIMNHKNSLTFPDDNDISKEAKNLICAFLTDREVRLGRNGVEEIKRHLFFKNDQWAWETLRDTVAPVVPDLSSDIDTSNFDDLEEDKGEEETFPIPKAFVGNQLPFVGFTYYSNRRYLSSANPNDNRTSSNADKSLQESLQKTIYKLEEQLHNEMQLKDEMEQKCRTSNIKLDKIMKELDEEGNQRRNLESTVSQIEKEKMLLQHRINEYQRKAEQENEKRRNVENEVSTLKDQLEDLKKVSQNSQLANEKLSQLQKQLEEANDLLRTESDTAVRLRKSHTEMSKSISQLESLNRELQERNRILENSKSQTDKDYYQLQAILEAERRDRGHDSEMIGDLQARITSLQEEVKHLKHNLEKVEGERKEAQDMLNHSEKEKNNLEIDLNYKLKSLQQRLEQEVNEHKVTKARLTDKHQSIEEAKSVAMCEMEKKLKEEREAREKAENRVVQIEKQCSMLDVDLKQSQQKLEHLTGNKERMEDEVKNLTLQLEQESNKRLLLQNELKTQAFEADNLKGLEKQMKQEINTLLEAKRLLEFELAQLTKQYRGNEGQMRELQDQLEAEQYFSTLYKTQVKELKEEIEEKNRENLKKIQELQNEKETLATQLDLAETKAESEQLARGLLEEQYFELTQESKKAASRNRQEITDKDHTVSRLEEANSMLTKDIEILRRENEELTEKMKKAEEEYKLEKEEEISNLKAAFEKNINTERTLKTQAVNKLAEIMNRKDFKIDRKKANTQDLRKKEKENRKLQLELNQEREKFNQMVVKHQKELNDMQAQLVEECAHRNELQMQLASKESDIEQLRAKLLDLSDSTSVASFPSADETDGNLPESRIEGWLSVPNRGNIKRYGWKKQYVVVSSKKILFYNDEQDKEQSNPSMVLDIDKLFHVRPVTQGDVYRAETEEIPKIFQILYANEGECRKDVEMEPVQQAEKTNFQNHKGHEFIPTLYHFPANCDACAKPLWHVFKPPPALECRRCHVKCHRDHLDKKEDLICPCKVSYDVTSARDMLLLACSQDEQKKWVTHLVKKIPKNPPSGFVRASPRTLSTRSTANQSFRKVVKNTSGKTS
Protocol: as §1

IC50 (ROCK 2) [µM] | IC50 (ROCK 1) [µM] | SMILES | also measured
88 | 43 | CCC/C=C/c1cnc2ccc(NCCCN3CCOCC3)nn12 [Example 18, (E)-N-(3-Morpholinopropyl)-3-(pent-1-enyl)imidazo[1,2-b]pyridazin-6-amine hydrochloride] | –
> 100 | 28 | CCCCCCc1cnc2ccc(NCCCN3CCOCC3)nn12 [Example 17, 3-Hexyl-N-(3-morpholinopropyl)imidazo[1,2-b]pyridazin-6-amine hydrochloride] | –
> 100 | > 100 | OCc1cnc2ccc(NCCCN3CCOCC3)nn12 [Example 24, (6-(3-Morpholinopropylamino)imidazo[1,2-b]pyridazin-3-yl)methanol hydrochloride] | –
> 100 | > 100 | CCOCc1cnc2ccc(NCCCN3CCOCC3)nn12 [Example 31, 3-(Ethoxymethyl)-N-(3-morpholinopropyl)imidazo[1,2-b]pyridazin-6-amine hydrocloride] | –
34 | 17 | CCCC/C=C/c1cnc2ccc(NCCO)nn12 [Example 42, (E)-2-(3-(Hex-1-enyl)imidazo[1,2-b]pyridazin-6-ylamino)ethanol hydrochloride] | –
> 100 | > 100 | CCCC/C=C/c1cnc2ccc(NCCN(CC)CC)nn12 [Example 40, (E)-N^1,N^1-Diethyl-N^2-(3-(hex-1-enyl)imidazo[1,2-b]pyridazin-6-yl)ethane-1,2-diamine hydrochloride] | –
33 | 30 | CCCC/C=C/c1cnc2ccc(NCCCO)nn12 [Example 6, (E)-3-(3-(Hex-1-enyl)imidazo [1,2-b]pyridazin-6-ylamino)propan-1-ol fumarate] | –
97 | 47 | CCCC/C=C/c1cnc2ccc(NCCCN3CCN(C)CC3)nn12 [Example 38, (E)-3-(Hex-1-enyl)-N-(3-(4-methylpiperazin-1-yl)propyl)imidazo[1,2-b]pyridazin-6-amine hydrochloride] | –
> 100 | 9.7 | CCCC/C=C/c1cnc2ccc(N3CCOCC3)nn12 [Example 5, (E)-4-(3-(Hex-1-enyl)imidazo[1,2-b]pyridazin-6-yl)morpholine fumarate] | –
13 | 23 | CCCC/C=C/c1cnc2ccc(NCCCCO)nn12 [Example 37, (E)-4-(3-(Hex-1-enyl)imidazo[1,2-b]pyridazin-6-ylamino)butan-1-ol hydrochloride] | –
4.7 | 2.3 | CCCC/C=C/c1cnc2ccc(NCc3cccnc3)nn12 [Example 45, (E)-3-(Hex-1-enyl)-N-(pyridin-3-ylmethyl)imidazo[1,2-b]pyridazin-6-amine] | –
65 | 58 | CCCC/C=C/c1cnc2ccc(NCCN(C)C)nn12 [Example 8, (E)-N^1-(3-(Hex-1-enyl)imidazo[1,2-b]pyridazin-6-yl)-N^2,N^2-dimethylethane-1,2-diamine fumarate] | –
88 | 43 | CCCC/C=C\c1cnc2ccc(NCCCN3CCOCC3)nn12 [Example 27, (Z)-3-(Hex-1-enyl)-N-(3-morpholinopropyl)imidazo[1,2-b]pyridazin-6-amine hydrochloride] | –

The next lines start with the compound.

SMILES | IC50 (ROCK 2) [µM] | IC50 (ROCK 1) [µM] | also measured
Cc1n[nH]c2ccc(-c3cnc4ccc(N5CCCNCC5)nn34)cc12 [Example 55, 3-(3-Methyl-1H-indazol-5-yl)-6-perhydro-1,4-diazepin-1-yl-imidazo[1,2-b]pyridazine trihydrochloride] | 0.011 | 0.0088 | IOP % Change ([1]; 1 hr after dosing): 1.0%; IOP Change mmHg ([1]; 1 hr after dosing): 1.0 mmHg; IOP % Change ([1]; 3 hrs after dosing): −21.6%; IOP Change mmHg ([1]; 3 hrs after dosing): −8.7 mmHg; IOP % Change ([1]; 6 hrs after dosing): −22.0%; IOP Change mmHg ([1]; 6 hrs after dosing): −8.9 mmHg
c1cc(-c2cnc3ccc(N4CCCNCC4)nn23)ccn1 [Example 54, 6-(1,4-Diazepan-1-yl)-3-pyridin-4-yl-imidazo [1,2-b]pyridazine hydrochloride] | 0.33 | 0.93 | –
c1cn2nc(NCCCN3CCOCC3)ccc2n1 [Example 35, N-(3-Morpholinopropyl)imidazo[1,2-b]pyridazin-6-amine hydrochloride] | > 100 | > 100 | –
c1ccc(CNc2ccc3nccn3n2)nc1 [Example 33, N-(Pyridin-2-ylmethyl)imidazo[1,2-b]pyridazin-6-amine hydrochloride] | 13 | > 100 | –
CCOCc1cnc2ccc(NCc3ccccn3)nn12 [Example 32, 3-(Ethoxymethyl)-N-(pyridin-2-ylmethyl)imidazo[1,2-b]pyridazin-6-amine hydrochloride] | > 100 | > 100 | –
C1=C(c2cnc3ccc(NCCCN4CCOCC4)nn23)CCCC1 [Example 20, 3-Cyclohexenyl-N-(3-morpholinopropyl)imidazo[1,2-b]pyridazin-6-amine hydrochloride] | > 100 | 55 | –
CCCCC#Cc1cnc2ccc(NCc3ccccn3)nn12 [Example 28, 3-(Hex-1-ynyl)-N-(pyridin-2-ylmethyl)imidazo[1,2-b]pyridazin-6-amine hydrochloride] | > 100 | > 100 | –
OCc1cnc2ccc(NCc3ccccn3)nn12 [Example 25, (6-(Pyridin-2-ylmethylamino)imidazo[1,2-b]pyridazin-3-yl)methanol hydrochloride] | > 100 | > 100 | –
COc1ccccc1-c1cnc2ccc(NCc3ccccn3)nn12 [Example 2, 3-(2-Methoxyphenyl)-N-(pyridin-2-ylmethyl)imidazo[1,2-b]pyridazin-6-amine fumarate] | > 100 | > 100 | –
c1n[nH]cc1-c1cnc2ccc(N3CCCNCC3)nn12 [Example 56, 6-Perhydro-1,4-diazepin-1-yl-3-(1H-pyrazol-4-yl)-imidazo[1,2-b]pyridazine dihydrochloride] | 6.7 | 18 | –
COc1ccc(-c2cnc3ccc(NCc4ccccn4)nn23)cc1 [Example 1, 3-(4-Methoxyphenyl)-N-(pyridin-2-ylmethyl)imidazo[1,2-b]pyridazin-6-amine] | 69 | 17 | –
